Measurements taken from US20230339878A1, “SLC26A3 INHIBITORS AND USE THEREOF” (THE REGENTS OF THE UNIVERSITY OF CALIFORNIA, priority 2018, published 2023).
“Also recorded” adds a separate entry of the source.

How the values were obtained:
pendrin (slc26a4) = molecular target: T1, pendrin (slc26a4) (Mus musculus, UniProt Q9R155); assay: Selectivity: pendrin-mediated Cl-/I- exchange, YFP assay; assay type: cell-based, murine; details: 10 µM
T1 construct: expressed in transfected cells; host or cells: FRT cells expressing YFP and slc26a4
T1 sequence (Q9R155 1-780): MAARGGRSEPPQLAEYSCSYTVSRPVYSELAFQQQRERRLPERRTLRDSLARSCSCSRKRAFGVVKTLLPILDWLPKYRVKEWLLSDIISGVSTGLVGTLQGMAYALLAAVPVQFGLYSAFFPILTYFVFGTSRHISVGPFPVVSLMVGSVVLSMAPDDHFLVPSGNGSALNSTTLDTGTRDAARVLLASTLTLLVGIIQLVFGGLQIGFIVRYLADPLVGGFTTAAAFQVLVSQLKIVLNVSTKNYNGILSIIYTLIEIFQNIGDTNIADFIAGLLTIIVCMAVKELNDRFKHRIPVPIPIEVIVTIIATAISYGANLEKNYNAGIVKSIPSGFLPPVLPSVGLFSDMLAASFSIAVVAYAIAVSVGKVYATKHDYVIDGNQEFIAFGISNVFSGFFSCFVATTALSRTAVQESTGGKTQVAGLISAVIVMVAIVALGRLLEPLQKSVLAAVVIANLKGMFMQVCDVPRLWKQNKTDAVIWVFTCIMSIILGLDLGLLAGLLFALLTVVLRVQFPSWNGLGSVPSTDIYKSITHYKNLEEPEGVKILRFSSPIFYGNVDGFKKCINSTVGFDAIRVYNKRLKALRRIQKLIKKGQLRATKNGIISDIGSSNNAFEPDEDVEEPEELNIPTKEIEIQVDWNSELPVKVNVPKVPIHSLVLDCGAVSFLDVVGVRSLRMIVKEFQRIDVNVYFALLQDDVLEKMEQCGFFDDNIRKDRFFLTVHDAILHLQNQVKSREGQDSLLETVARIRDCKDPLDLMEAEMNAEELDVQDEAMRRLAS
From the text: (§1) To investigate Compound A1 selectivity, transport assays were done on a panel of SLC26-family homologs, and other relevant epithelial ion transporters and channels. […] In separate studies, to investigate possible action of Compound A1 on multiple ion transporters and channels in a human epithelium, human bronchial epithelial (HBE) cells were studied by short-circuit current, with successive additions of amiloride (to block the epithelial sodium channel ENaC), forskolin, CFTRinh-172 (to block CFTR), and ATP (to activate the Ca^2+-activated chloride channel, CaCC) (FIG. 5C).
(§2) YFP-based assays of CFTR, pendrin and TMEM16A were as described. HEK cells transfected to express YFP and SLC26A3, slc26a6 or slc26a9 were functionally assayed using a Cl^-/I^- exchange protocol. Assays of Cl^-/HCO3^- exchange were done using BCECF as an intracellular pH indicator as described for pendrin. […]
(§3) HEK293 cells transfected with pIRES-YFP-slc26a9 were plated in 96-well black-walled, clear-bottom tissue culture plates (Corning Life Sciences, Tewksbury, MA) after coating with FNC Coating Mix (AthenaES, Baltimore, MD). […] Assays of slc26a9-mediated anion exchange were done by initially recording YFP fluorescence prior to addition of 100 µL of NaI-substituted PBS to test wells, with the initial rate of Cl^-/I^- exchange deduced from fluorescence intensity by single exponential regression. […]

CFTR = molecular target: T2, CFTR (Homo sapiens, UniProt P13569); assay: Selectivity: CFTR (forskolin stimulated) YFP assay; assay type: cell-based; details: 10 µM
T2 construct: expressed in transfected cells; host or cells: FRT cells expressing YFP and CFTR
From the text: as §1, §2, §3

[1] = tested on: ENaC, CFTR or CaCC activity in human bronchial epithelial (HBE) cells; assay: Short-circuit current in well-differentiated HBE cells; assay type: cell-based; details: 10 µM, pre-treatment 20 min; amiloride, forskolin, CFTRinh-172, ATP additions
From the text: as §1
HEK293 cells transfected with pIRES-YFP-slc26a9 were plated in 96-well black-walled, clear-bottom tissue culture plates (Corning Life Sciences, Tewksbury, MA) after coating with FNC Coating Mix (AthenaES, Baltimore, MD). […] Assays of slc26a9-mediated anion exchange were done by initially recording YFP fluorescence prior to addition of 100 µL of NaI-substituted PBS to test wells, with the initial rate of Cl^-/I^- exchange deduced from fluorescence intensity by single exponential regression. […] To assay SLC26A3 function, HEK293 cells transduced with lentiviral particles generated from the pLVX-IRES-mCherry-SLC26A3 transfer vector were transfected to express YFP for Cl^-/I^- exchange assays as described above; red fluorescence images were acquired to confirm SLC26A3 expression in cells. […]

T2 sequence (P13569 whole entry, species assumed): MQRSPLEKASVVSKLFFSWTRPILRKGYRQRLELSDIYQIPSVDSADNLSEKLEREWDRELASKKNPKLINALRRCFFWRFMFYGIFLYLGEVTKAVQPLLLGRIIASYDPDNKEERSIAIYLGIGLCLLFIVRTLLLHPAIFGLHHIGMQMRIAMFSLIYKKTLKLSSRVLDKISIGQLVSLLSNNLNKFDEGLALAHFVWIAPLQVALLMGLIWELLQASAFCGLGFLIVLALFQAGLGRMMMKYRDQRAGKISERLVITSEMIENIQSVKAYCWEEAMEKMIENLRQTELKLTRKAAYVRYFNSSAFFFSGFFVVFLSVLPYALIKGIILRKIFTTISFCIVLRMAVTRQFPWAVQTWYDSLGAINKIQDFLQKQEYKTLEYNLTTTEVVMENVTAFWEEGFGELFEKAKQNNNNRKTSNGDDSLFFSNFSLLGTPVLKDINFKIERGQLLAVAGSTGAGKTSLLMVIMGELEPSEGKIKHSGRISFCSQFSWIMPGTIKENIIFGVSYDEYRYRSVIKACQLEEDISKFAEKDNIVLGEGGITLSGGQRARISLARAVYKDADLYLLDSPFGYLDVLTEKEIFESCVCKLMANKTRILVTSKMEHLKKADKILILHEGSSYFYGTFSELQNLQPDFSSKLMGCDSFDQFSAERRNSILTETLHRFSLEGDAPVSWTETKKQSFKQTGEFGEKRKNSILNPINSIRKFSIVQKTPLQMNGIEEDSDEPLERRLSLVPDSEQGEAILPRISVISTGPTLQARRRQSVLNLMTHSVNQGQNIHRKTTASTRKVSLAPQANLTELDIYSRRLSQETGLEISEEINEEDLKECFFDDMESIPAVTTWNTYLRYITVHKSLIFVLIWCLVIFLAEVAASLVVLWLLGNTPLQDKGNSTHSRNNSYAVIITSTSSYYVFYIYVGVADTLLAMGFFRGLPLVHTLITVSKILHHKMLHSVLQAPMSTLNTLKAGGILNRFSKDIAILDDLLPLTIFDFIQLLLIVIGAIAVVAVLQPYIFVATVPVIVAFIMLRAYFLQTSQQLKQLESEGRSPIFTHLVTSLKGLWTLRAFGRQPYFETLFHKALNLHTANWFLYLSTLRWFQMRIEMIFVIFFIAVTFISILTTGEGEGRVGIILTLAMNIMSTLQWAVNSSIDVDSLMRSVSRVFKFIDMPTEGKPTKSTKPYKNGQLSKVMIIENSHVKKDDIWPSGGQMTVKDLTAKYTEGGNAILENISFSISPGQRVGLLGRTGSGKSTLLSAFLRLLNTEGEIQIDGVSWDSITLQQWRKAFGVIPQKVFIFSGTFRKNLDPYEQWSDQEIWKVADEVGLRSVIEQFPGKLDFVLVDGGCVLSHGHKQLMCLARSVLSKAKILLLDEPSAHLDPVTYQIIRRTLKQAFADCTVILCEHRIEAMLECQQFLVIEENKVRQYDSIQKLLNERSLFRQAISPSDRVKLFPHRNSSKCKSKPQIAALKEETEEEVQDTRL

## Cc1c(CC(=O)O)c(=O)oc2c(C)c(OCc3cccc(Br)c3)ccc12 [Compound A1]
Pendrin (slc26a4)
  effect on Cl-/I- exchange activity of pendrin (slc26a4): did not alter; also recorded: did not inhibit; also recorded: differences not significant
CFTR
  effect on activity of CFTR: did not alter the activity; also recorded: differences not significant
[1]
  effect on short-circuit current responses: did not alter short-circuit current responses; also recorded: differences not significant
